According to US20230278972A1, “SUBSTITUTED HALOALKYL SULFONANILIDE HERBICIDES” (FMC Corporation, priority 2020, published 2023):

Legend:
Format in all cases: in vivo
corn (Zea mays) = experiment: Test A postemergence, corn; settings: Postemergence, 0 to 100 scale (0 no effect, 100 complete control); for Plant response rating, Corn: 125 g ai/ha; for Corn plant response rating: 500 g ai/ha, visual injury vs untreated controls after approx. 10 days
In short: (§1)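 Formulated with a surfactant in a non-phytotoxic solvent, compounds are applied to loam–sand pots, either to bare soil immediately after seeding (preemergence) or to seedlings of 2 to 10 cm bearing one to two leaves (postemergence).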

[1] = system: pigweed (Amaranthus retroflexus); experiment: Test A preemergence, pigweed; settings: for Pigweed plant response rating: visual injury on 0 to 100 scale (0 no effect, 100 complete control), approximately 10 days; for Plant response rating, Pigweed: 0 to 100 scale (0 no effect, 100 complete control)
In short: (§2)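 Pots: loam soil/sand blend. Pre: directed soil spray at planting. Post: plants 2–10 cm, 1–2 leaf stage. Formulation: non-phytotoxic solvent + surfactant.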

[2] = system: Ryegrass, Italian (Italian ryegrass, Lolium multiflorum); experiment: Test A postemergence, Ryegrass, Italian; settings: Postemergence, 0 to 100 scale (0 no effect, 100 complete control); for Plant response rating, Ryegrass, Italian: 125 g ai/ha; for Ryegrass, Italian plant response rating: 500 g ai/ha, visual injury vs untreated controls after approx. 10 days
In short: as §1

[3] = system: Ryegrass, Italian (Italian ryegrass, Lolium multiflorum); experiment: Test A preemergence, Ryegrass, Italian; settings: Preemergence; for Ryegrass, Italian plant response rating: visual injury on 0 to 100 scale (0 no effect, 100 complete control), approximately 10 days; for Plant response rating, Ryegrass, Italian: 0 to 100 scale (0 no effect, 100 complete control)
In short: as §1

kochia (Bassia scoparia) [4] = experiment: Test A preemergence, kochia; settings: Preemergence; for Kochia plant response rating: visual injury on 0 to 100 scale (0 no effect, 100 complete control), approximately 10 days; for Plant response rating, Kochia: 0 to 100 scale (0 no effect, 100 complete control)
In short: as §1

kochia (Bassia scoparia) [5] = experiment: Test A postemergence, kochia; settings: Postemergence, 0 to 100 scale (0 no effect, 100 complete control); for Plant response rating, Kochia: 125 g ai/ha; for Kochia plant response rating: 500 g ai/ha, visual injury vs untreated controls after approx. 10 days
In short: as §1

[6] = system: wheat (Triticum aestivum); experiment: Test A postemergence, wheat; settings: Postemergence, 0 to 100 scale (0 no effect, 100 complete control); for Plant response rating, Wheat: 125 g ai/ha; for Wheat plant response rating: 500 g ai/ha, visual injury vs untreated controls after approx. 10 days
In short: as §2

[7] = system: barnyardgrass (Echinochloa crus-galli); experiment: Test A postemergence, barnyardgrass; settings: Postemergence, 0 to 100 scale (0 no effect, 100 complete control); for Plant response rating, Barnyardgrass: 125 g ai/ha; for Barnyardgrass plant response rating: 500 g ai/ha, visual injury vs untreated controls after approx. 10 days
In short: as §2

[8] = system: blackgrass (Alopecurus myosuroides); experiment: Test A postemergence, blackgrass; settings: Postemergence, 0 to 100 scale (0 no effect, 100 complete control); for Plant response rating, Blackgrass: 125 g ai/ha; for Blackgrass plant response rating: 500 g ai/ha, visual injury vs untreated controls after approx. 10 days
In short: as §1

[9] = system: pigweed (Amaranthus retroflexus); experiment: Test A postemergence, pigweed; settings: Postemergence, 0 to 100 scale (0 no effect, 100 complete control); for Plant response rating, Pigweed: 125 g ai/ha; for Pigweed plant response rating: 500 g ai/ha, visual injury vs untreated controls after approx. 10 days
In short: as §1

[10] = system: ragweed (common ragweed, Ambrosia artemisiifolia); experiment: Test A preemergence, ragweed; settings: Preemergence; for Ragweed plant response rating: visual injury on 0 to 100 scale (0 no effect, 100 complete control), approximately 10 days; for Plant response rating, Ragweed: 0 to 100 scale (0 no effect, 100 complete control)
In short: as §1

[11] = system: galium (catchweed bedstraw, Galium aparine); experiment: Test A postemergence, galium; settings: Postemergence, 0 to 100 scale (0 no effect, 100 complete control); for Plant response rating, Galium: 125 g ai/ha; for Galium plant response rating: 500 g ai/ha, visual injury vs untreated controls after approx. 10 days
In short: as §2

[12] = system: Foxtail, Giant (giant foxtail, Setaria faberi); experiment: Test A postemergence, Foxtail, Giant; settings: Postemergence, 0 to 100 scale (0 no effect, 100 complete control); for Plant response rating, Foxtail, Giant: 125 g ai/ha; for Foxtail, Giant plant response rating: 500 g ai/ha, visual injury vs untreated controls after approx. 10 days
In short: as §1

[13] = system: Foxtail, Giant (giant foxtail, Setaria faberi); experiment: Test A preemergence, Foxtail, Giant; settings: Preemergence; for Foxtail, Giant plant response rating: visual injury on 0 to 100 scale (0 no effect, 100 complete control), approximately 10 days; for Plant response rating, Foxtail, Giant: 0 to 100 scale (0 no effect, 100 complete control)
In short: as §1

[14] = system: ragweed (common ragweed, Ambrosia artemisiifolia); experiment: Test A postemergence, ragweed; settings: Postemergence, 0 to 100 scale (0 no effect, 100 complete control); for Plant response rating, Ragweed: 125 g ai/ha; for Ragweed plant response rating: 500 g ai/ha, visual injury vs untreated controls after approx. 10 days
In short: as §1

[15] = system: barnyardgrass (Echinochloa crus-galli); experiment: Test A preemergence, barnyardgrass; settings: Preemergence; for Barnyardgrass plant response rating: visual injury on 0 to 100 scale (0 no effect, 100 complete control), approximately 10 days; for Plant response rating, Barnyardgrass: 0 to 100 scale (0 no effect, 100 complete control)
In short: as §1

[16] = 125 g ai/ha, visual injury, approx. 10 days

Row | SMILES | Plant response rating, Corn (corn (Zea mays)) | Corn plant response rating (corn (Zea mays)) | Pigweed plant response rating ([1]; 125 g ai/ha) | Plant response rating, Pigweed ([1]; 500 g ai/ha) | Plant response rating, Ryegrass, Italian [2] | Ryegrass, Italian plant response rating [2] | Ryegrass, Italian plant response rating ([3]; 125 g ai/ha) | Plant response rating, Ryegrass, Italian ([3]; 500 g ai/ha) | Kochia plant response rating (kochia (Bassia scoparia) [4]; 125 g ai/ha) | Plant response rating, Kochia (kochia (Bassia scoparia) [4]; 500 g ai/ha) | Plant response rating, Kochia (kochia (Bassia scoparia) [5]) | Kochia plant response rating (kochia (Bassia scoparia) [5]) | Wheat plant response rating [6] | Barnyardgrass plant response rating [7] | Blackgrass plant response rating [8] | Pigweed plant response rating [9] | Galium plant response rating [11] | Foxtail, Giant plant response rating [12] | Ragweed plant response rating [14] | Plant response rating, Barnyardgrass ([15]; 500 g ai/ha) | other results
1 | Cc1cc(C)c(N(S(=O)(=O)C(F)(F)F)S(=O)(=O)C(F)(F)F)cc1C1=NOC2(CCOCC2)C1 [Compound 178] | 0 | 10 | 100 | 100 | 0 | 30 | 90 | 100 | 90 | 100 | 20 | 70 | 30 | 90 | 0 | 90 | 90 | 20 | 80 | 100 | Plant response rating, Wheat [6]: 10; Plant response rating, Barnyardgrass [7]: 40; Plant response rating, Blackgrass [8]: 0; Plant response rating, Pigweed [9]: 60; Ragweed plant response rating ([10]; 125 g ai/ha): 80; Plant response rating, Ragweed ([10]; 500 g ai/ha): 90; Plant response rating, Galium [11]: 80; Plant response rating, Foxtail, Giant [12]: 0; Foxtail, Giant plant response rating ([13]; 125 g ai/ha): 90; Plant response rating, Foxtail, Giant ([13]; 500 g ai/ha): 100; Plant response rating, Ragweed [14]: 40; Barnyardgrass plant response rating ([15]; 125 g ai/ha): 90
2 | Cc1cc(F)c(C(=O)N2CCC(C#N)CC2)cc1NS(=O)(=O)C(F)(F)F [Compound 236] | 0 | 20 |  |  | 30 | 60 |  |  |  |  | 30 | 50 | 0 | 60 | 20 | 60 | 70 | 80 | 80 | 0 | Plant response rating, Pigweed [1, 16]: 60; Pigweed plant response rating ([1]; 500 g ai/ha): 90; Plant response rating, Ryegrass, Italian [3, 16]: 20; Ryegrass, Italian plant response rating ([3]; 500 g ai/ha): 60; Plant response rating, Kochia (kochia (Bassia scoparia) [4]; [16]): 20; Kochia plant response rating (kochia (Bassia scoparia) [4]; 500 g ai/ha): 70; Plant response rating, Wheat [6]: 0; Plant response rating, Barnyardgrass [7]: 50; Plant response rating, Blackgrass [8]: 0; Plant response rating, Pigweed [9]: 40; Plant response rating, Ragweed [10, 16]: 50; Ragweed plant response rating ([10]; 500 g ai/ha): 80; Plant response rating, Galium [11]: 40; Plant response rating, Foxtail, Giant [12]: 20; Plant response rating, Foxtail, Giant [13, 16]: 30; Foxtail, Giant plant response rating ([13]; 500 g ai/ha): 60; Plant response rating, Ragweed [14]: 40; Plant response rating, Barnyardgrass [15, 16]: 0
3 | CCn1nc(C)cc(-c2cc(NS(=O)(=O)C(F)(F)F)c(C)cc2C)c1=O [Compound 68] |  | 20 | 70 | 90 |  | 80 | 90 | 100 | 70 | 90 |  | 50 | 80 | 80 | 70 | 50 | 80 | 90 | 80 | 100 | Plant response rating, Corn (corn (Zea mays); visual injury approx. 10 days): 10; Plant response rating, Ryegrass, Italian ([2]; visual injury approx. 10 days): 40; Plant response rating, Kochia (kochia (Bassia scoparia) [5]; visual injury approx. 10 days): 10; Plant response rating, Wheat ([6]; visual injury approx. 10 days): 70; Plant response rating, Barnyardgrass ([7]; visual injury approx. 10 days): 60; Plant response rating, Blackgrass ([8]; visual injury approx. 10 days): 70; Plant response rating, Pigweed ([9]; visual injury approx. 10 days): 20; Ragweed plant response rating ([10]; 125 g ai/ha): 30; Plant response rating, Ragweed ([10]; 500 g ai/ha): 90; Plant response rating, Galium ([11]; visual injury approx. 10 days): 50; Plant response rating, Foxtail, Giant ([12]; visual injury approx. 10 days): 20; Foxtail, Giant plant response rating ([13]; 125 g ai/ha): 100; Plant response rating, Foxtail, Giant ([13]; 500 g ai/ha): 100; Plant response rating, Ragweed ([14]; visual injury approx. 10 days): 50; Barnyardgrass plant response rating ([15]; 125 g ai/ha): 100
